Earlier results as cited in patent publication US10213389B2 (priority 2005, dated 2019).

1,4:3,6-dianhydro-D-glucitol dinitrate [Isosorbide dinitrate]
solubility in acetone, chloroform, alcohol and ether (acetone, chloroform, alcohol, ether): freely soluble | solubility in water (water, described as sparingly soluble): 1.0 g/900 ml
